Results published in ChEMBL document CHEMBL4813909, “Heterocyclic Diamidine DNA Ligands as HOXA9 Transcription Factor Inhibitors: Design, Molecular Evaluation, and Cellular Consequences in a HOXA9-Dependant Leukemia Cell Model” (J Med Chem, 2019).
Active and inactive are the calls of the source. The calls are words filed in the database; no cut-off is given here.

Experiments:
[1] = test system: HOXA9 DNA binding site; conditions: dose 1.0 µM
[2] = test system: HOXA9 DNA binding site; conditions: dose 0.5 µM
[3] = Drug localization in nucleus of mouse MigA9 cells at 20 uM incubated for 2 hrs by TO-PRO-3/propidium iodide staining based by fluorescence microscopy; type: ADME, subcellular; conditions: miga9, 2 h
[4] = test system: HOXA9 DNA binding site; assay: Inhibition of HOXA9 (unknown origin) expressed in reticulocyte lysate system binding to 32P-radiolabeled DNA Hoxa9-binding site (strand a-CTGCGATGATTTACGACCGC /strand b-GCGGTCGTAAATCATCGCAG) (unknown origin) assessed as HOXA9/DNA inhibition at 2.5 to 20 uM incubated for 20 mins by electrophoretic mobility shift assay relative to control; type: subcellular; conditions: dose 2.5-20 µM
[5] = Induction of cell death in mouse MigA9 cells harboring mouse Hoxa9 gene assessed as propidium iodide-positive cells at 15 uM incubated for 24 hrs by propidium iodide staining based flow cytometry (reference value: 9.06 +/- 0.53%); type: functional
[6] = Induction of cell death in mouse MigA9 cells harboring mouse Hoxa9 gene assessed as propidium iodide-positive cells at 20 uM incubated for 24 hrs by propidium iodide staining based flow cytometry (reference value: 9.06 +/- 0.53%); type: functional
[7] = Induction of cell cycle arrest in mouse MigA9 cells harboring mouse Hoxa9 gene assessed as accumulation at sub-G1 phase at 20 uM incubated for 48 hrs by propidium iodide staining based flow cytometry (reference value: 0.76 +/- 0.1%); type: functional
[8] = Drug localization in nucleus of human HT-29 cells at 5 uM incubated for 16 hrs by DiOC6/propidium iodide staining based by fluorescence microscopy; type: ADME, subcellular; conditions: ht-29, 16 h
[9] = Induction of cell cycle arrest in mouse MigA9 cells harboring mouse Hoxa9 gene assessed as accumulation at sub-G1 phase at 0.5 uM incubated for 48 hrs by propidium iodide staining based flow cytometry (reference value: 0.76 +/- 0.1%); type: functional
[10] = test system: HOXA9 DNA binding site; conditions: dose 0.5-1 µM
[11] = Induction of cell death in mouse MigA9 cells harboring mouse Hoxa9 gene assessed as propidium iodide-positive cells at 1 uM incubated for 48 hrs by propidium iodide staining based flow cytometry (reference value: 8.75 +/- 0.2%); type: functional
[12] = Induction of cell death in mouse MigA9 cells harboring mouse Hoxa9 gene assessed as propidium iodide-positive cells at 0.5 uM incubated for 24 hrs by propidium iodide staining based flow cytometry (reference value: 9.06 +/- 0.53%); type: functional
[13] = Induction of cell cycle arrest in mouse MigA9 cells expressing mouse Hoxa9 assessed as accumulation at G2/M phase at 0.5 uM incubated for 48 hrs by EdU/propidium iodide staining based flow cytometry (reference value: 4.55 +/- 0.16%); type: functional
[14] = Induction of cell cycle arrest in mouse MigA9 cells expressing mouse Hoxa9 assessed as accumulation at G0/G1 phase at 0.5 uM incubated for 48 hrs by EdU/propidium iodide staining based flow cytometry (reference value: 48.77 +/- 0.19%); type: functional
[15] = Induction of cell death in mouse MigA9 cells harboring mouse Hoxa9 gene assessed as propidium iodide-positive cells at 0.5 uM incubated for 48 hrs by propidium iodide staining based flow cytometry (reference value: 8.75 +/- 0.2%); type: functional
[16] = Induction of cell cycle arrest in mouse MigA9 cells expressing mouse Hoxa9 assessed as accumulation at S phase at 0.5 uM incubated for 48 hrs by EdU/propidium iodide staining based flow cytometry (reference value: 46.68 +/- 0.21%); type: functional
[17] = Induction of cell death in mouse MigA9 cells harboring mouse Hoxa9 gene assessed as propidium iodide-positive cells at 1 uM incubated for 24 hrs by propidium iodide staining based flow cytometry relative to control; type: functional
[18] = Induction of cell cycle arrest in mouse MigA9 cells expressing mouse Hoxa9 assessed as accumulation at G0/G1 phase at 5 uM incubated for 48 hrs by EdU/propidium iodide staining based flow cytometry (reference value: 48.77 +/- 0.19%); type: functional
[19] = Induction of cell cycle arrest in mouse MigA9 cells expressing mouse Hoxa9 assessed as accumulation at S phase at 5 uM incubated for 48 hrs by EdU/propidium iodide staining based flow cytometry (reference value: 46.68 +/- 0.21%); type: functional
[20] = Induction of cell cycle arrest in mouse MigA9 cells harboring mouse Hoxa9 gene assessed as accumulation at sub-G1 phase at 5 uM incubated for 48 hrs by propidium iodide staining based flow cytometry (reference value: 0.76 +/- 0.1%); type: functional
[21] = Induction of cell death in mouse MigA9 cells harboring mouse Hoxa9 gene assessed as propidium iodide-positive cells at 5 uM incubated for 24 hrs by propidium iodide staining based flow cytometry (reference value: 9.06 +/- 0.53%); type: functional
[22] = Induction of cell cycle arrest in mouse MigA9 cells expressing mouse Hoxa9 assessed as accumulation at G2/M phase at 5 uM incubated for 48 hrs by EdU/propidium iodide staining based flow cytometry (reference value: 4.55 +/- 0.16%); type: functional
[23] = Induction of cell death in mouse MigA9 cells harboring mouse Hoxa9 gene assessed as propidium iodide-positive cells at 5 uM incubated for 48 hrs by propidium iodide staining based flow cytometry (reference value: 8.75 +/- 0.2%); type: functional
[24] = Cytotoxicity against mouse MigA9 cells harboring mouse Hoxa9 gene incubated for 72 hrs by MTS assay; type: functional, cell-based; conditions: MigA9, 72 h

In the case of `N=C(N)c1ccc(-c2ccc(-c3cc4ccc(C(=N)N)cc4[nH]3)o2)cc1`, the ΔTm [1] is reported as over 10 °C, the ΔTm [2] is reported as 7 °C and the Drug transport [3] is reported as “Active”. The inhibition [4] was “Active” and the Activity ([5]; dose 15 µM, time 24 hrs) was 11.76%.
With `N=C(N)c1ccc(-c2cnc(-c3ccc(C(=N)N)cc3)s2)cc1` the Activity ([6]; dose 20 µM, time 24 hrs) was 5.91%, the Drug transport [3] was “Active” and the Activity [7] was 1.71%. For the same compound, the inhibition [4] was “Active” and the Activity ([5]; dose 15 µM, time 24 hrs) was 5.69%.
In the case of `N=C(N)c1ccc2nc(-c3ccc(-c4ccc(C(=N)N)nc4)o3)[nH]c2c1`, the Drug transport [8] is reported as “Active” and the inhibition [4] is reported as “inactive”.
In the case of `Cn1c(-c2ccc(-c3ccc(C(=N)N)cc3)s2)nc2cc(C(=N)N)ccc21`, the Drug transport [3] is reported as “Active” and the inhibition [4] is reported as “inactive”.
For `N=C(Nc1ccc(-c2ccc(-c3ccc(NC(=N)c4ccccc4)cc3)[nH]2)cc1)c1ccccc1`, the Activity [9] was 2.47%, the ΔTm [10] was 8 °C and the Activity [11] was 99.33%. For the same compound, the Activity [12] was 12.9%, the Activity [13] was 7.32% and the Drug transport [3] was “Active”. It also gave an Activity [14] of 53.83%, an Activity [15] of 18.33% and an Activity [16] of 38.84%. For the same compound, the Activity [17] was 68.8%.
For `N=C(N)c1ccc(-c2ccc(-c3cc4ccc(C(=N)N)cc4[nH]3)s2)nc1`, the Activity [18] was 67.95%, the ΔTm [1] was over 10 °C and the Activity [19] was 22.55%. The Activity [20] was 4.48%, the ΔTm [2] was 7 °C and the Activity [21] was 6.21%. For the same compound, the Activity [22] was 9.5% and the Activity [23] was 39.4%.
In the case of `Cc1cc(C(=N)N)ccc1-c1ccc(-c2nc3ccc(C(=N)N)cc3[nH]2)o1`, the Drug transport [8] is reported as “Active”.
Work on `N=C(N)c1ccc(-c2ccc(-c3cc4ccc(C(=N)N)cc4[nH]3)s2)cc1` yielded an Activity [18] of 77.92%, a ΔTm [1] of over 10 °C and an Activity [19] of 9.15%. For the same compound, the Activity [20] was 33.64%, the Drug transport [3] was “Active” and the Activity [21] was 7.42%. The Activity [22] was 12.93% and the Activity [23] was 77.87%.
For `N=C(N)c1ccc(-c2ccc(-c3nc4ccc(C(=N)N)cc4[nH]3)o2)c(O)c1`, the Drug transport [8] was “Active”.
In the case of `Cn1c(-c2ccc(-c3ccc(-c4nc5cc(C(=N)N)ccc5n4C)s3)cc2)nc2cc(C(=N)N)ccc21`, the Drug transport [3] is reported as “Active” and the inhibition [4] is reported as “inactive”.
In the case of `Cn1c(-c2ccc(-c3ccc(C(=N)N)cc3)o2)nc2cc(C(=N)N)ccc21`, the Drug transport [3] is reported as “Active” and the inhibition [4] is reported as “inactive”.
In the case of `N=C(N)c1ccc(-c2ccc(-c3nc4cc(C(=N)N)ccc4[nH]3)o2)cc1`, the Drug transport [8] is reported as “Active” and the inhibition [4] is reported as “inactive”.
Work on `N=C(N)c1ccc(-n2ccc(-c3nc4ccc(C(=N)N)cc4[nH]3)n2)cc1` yielded an Activity ([6]; miga9, at 20 µM) of 10.43%, an IC50 [24] of over 50 µM and an Activity [7] of 0.67%. It also gave an Activity ([5]; miga9, at 15 µM) of 8.64%.
In the case of `CC(C)n1c(-c2ccc(-c3ccc(C(=N)N)cc3)s2)nc2cc(-c3ccc(C(=N)N)cc3)ccc21`, the Drug transport [3] is reported as “Active”.
For `COc1cc(C(=N)N)ccc1-c1ccc(-c2cc3ccc(C(=N)N)cc3[nH]2)o1`, the Drug transport [3] was “Active”.
With `N=C(N)c1ccc(-c2ccc(-c3ccc(C(=N)N)cc3)o2)cc1` [FURAMIDINE] the Drug transport [3] was “Active”.
In the case of `N=C(N)c1ccc(-c2ccc(-c3nc4ccc(C(=N)N)cc4[nH]3)o2)nc1`, the Drug transport [8] is reported as “Active” and the Drug transport [3] is reported as “Active”.
In the case of `N=C(N)c1ccc(-c2cccc(-c3nc4cc(C(=N)N)ccc4[nH]3)c2)cc1`, the Drug transport [3] is reported as “Not Active”.
`N=C(N)c1ccc(-c2ccc(-c3ccc4ccc(C(=N)N)cc4c3)cc2)cc1` gave a ΔTm [10] of 8 °C.
With `N=C(N)c1ccc(-c2ccc(-c3cc4cc(C(=N)N)ccc4[nH]3)o2)nc1` the Drug transport [3] was “Active”.
For `N=C(N)c1ccc(-c2cnc(-c3ccc(C(=N)N)cc3)o2)cc1`, the inhibition [4] was “inactive”.
